Measurements taken from patent publication US10604502B2, “Substituted 5-cyanoindole compounds and uses thereof” (Novartis AG, priority 2017, dated 2020).

Test system: CD86 mRNA expression in MV4-11 cells
Assay: CD86 mRNA expression assay (qPCR assay) in MV4-11 cells
Format: cell-based
Settings: Homo sapiens, 24 hours treatment, CD86 mRNA normalized against ACTB, read-out: CD86 induction qPCR in MV4-11 AC50
Description: MV4-11 cells were treated with representative compound of the present invention and RNA was extracted, followed by reverse transcription and Real-Time PCR. […] The data were used for dose response curve fitting in GraphPad Prism to calculate the AC50 of each compound. AC50 of CD86 mRNA expression activation after treatment of representative compounds of present invention will reflect the inhibition of LSD1 activity.

| Structure (SMILES) | AC50 [nM] |
| --- | --- |
| Cc1cc2c(cc1C#N)c(-c1cncc(N)c1Cl)cn2[C@H]1CC[C@H](O)CC1 [Example 1, 3-(5-amino-4-chloropyridin-3-yl)-1-((1R,4R)-4-hydroxycyclohexyl)-6-methyl-1H-indole-5-carbonitrile] | 98 |
| Cc1cc2c(cc1C#N)c(-c1cncc(N)c1F)cn2[C@H]1CC[C@H](O)CC1 [Example 5, 3-(5-amino-4-fluoropyridin-3-yl)-1-((1R,4R)-4-hydroxycyclohexyl)-6-methyl-1H-indole-5-carbonitrile] | 3620 |
| N#Cc1cc2c(-c3cncc(N)c3Cl)cn([C@H]3CC[C@H](O)CC3)c2cc1Cl [Example 7, 3-(5-amino-4-chloropyridin-3-yl)-6-chloro-1-((1R,4R)-4-hydroxycyclohexyl)-1H-indole-5-carbonitrile] | 569 |
| Cc1cc2c(cc1C#N)c(-c1cncc(N)c1Cl)cn2[C@H]1CC[C@H](S(C)(=O)=O)CC1 [Example 47, 3-(5-amino-4-chloropyridin-3-yl)-6-methyl-1-((1R,4R)-4-(methylsulfonyl)cyclohexyl)-1H-indole-5-carbonitrile] | 202 |
| Cc1cc2c(cc1C#N)c(-c1cncc(N)c1Cl)cn2C1CCC(C(N)=O)C1 (stereo not shown) [Example 68, 3(3-(5-amino-4-chloropyridin-3-yl)-5-cyano-6-methyl-1H-indol-1-yl)cyclopentane-1-carboxamide] | 464 |
| Cc1cc2c(cc1C#N)c(-c1cncc(N)c1Cl)cn2-c1ccc(S(C)(=O)=O)cc1 [Example 77, 3-(5-amino-4-chloropyridin-3-yl)-6-methyl-1-(4-(methylsulfonyl)phenyl)-1H-indole-5-carbonitrile] | 7 |
| Cc1cc2c(cc1C#N)c(-c1cncc(N)c1Cl)cn2-c1ccc(=O)n(C)c1 [Example 84, 3-(5-amino-4-chloropyridin-3-yl)-6-methyl-1-(1-methyl-6-oxo-1,6-dihydropyridin-3-yl)-1H-indole-5-carbonitrile] | 1490 |
